This note sets out measurements from ChEMBL document CHEMBL5532655, “Discovery of (R)-4-(8-methoxy-2-methyl-1-(1-phenylethy)-1H-imidazo[4,5-c]quinnolin-7-yl)-3,5-dimethylisoxazole as a potent and selective BET inhibitor for treatment of acute myeloid leukemia (AML) guided by FEP calculation” (Eur J Med Chem, 2024).

The species entered for assay [1] is Homo sapiens. As to conditions: time 30.0 min.
Assay [2] has as its target T1, Transcription intermediary factor 1-alpha (Homo sapiens) (UniProt O15164).
T1 sequence (whole entry): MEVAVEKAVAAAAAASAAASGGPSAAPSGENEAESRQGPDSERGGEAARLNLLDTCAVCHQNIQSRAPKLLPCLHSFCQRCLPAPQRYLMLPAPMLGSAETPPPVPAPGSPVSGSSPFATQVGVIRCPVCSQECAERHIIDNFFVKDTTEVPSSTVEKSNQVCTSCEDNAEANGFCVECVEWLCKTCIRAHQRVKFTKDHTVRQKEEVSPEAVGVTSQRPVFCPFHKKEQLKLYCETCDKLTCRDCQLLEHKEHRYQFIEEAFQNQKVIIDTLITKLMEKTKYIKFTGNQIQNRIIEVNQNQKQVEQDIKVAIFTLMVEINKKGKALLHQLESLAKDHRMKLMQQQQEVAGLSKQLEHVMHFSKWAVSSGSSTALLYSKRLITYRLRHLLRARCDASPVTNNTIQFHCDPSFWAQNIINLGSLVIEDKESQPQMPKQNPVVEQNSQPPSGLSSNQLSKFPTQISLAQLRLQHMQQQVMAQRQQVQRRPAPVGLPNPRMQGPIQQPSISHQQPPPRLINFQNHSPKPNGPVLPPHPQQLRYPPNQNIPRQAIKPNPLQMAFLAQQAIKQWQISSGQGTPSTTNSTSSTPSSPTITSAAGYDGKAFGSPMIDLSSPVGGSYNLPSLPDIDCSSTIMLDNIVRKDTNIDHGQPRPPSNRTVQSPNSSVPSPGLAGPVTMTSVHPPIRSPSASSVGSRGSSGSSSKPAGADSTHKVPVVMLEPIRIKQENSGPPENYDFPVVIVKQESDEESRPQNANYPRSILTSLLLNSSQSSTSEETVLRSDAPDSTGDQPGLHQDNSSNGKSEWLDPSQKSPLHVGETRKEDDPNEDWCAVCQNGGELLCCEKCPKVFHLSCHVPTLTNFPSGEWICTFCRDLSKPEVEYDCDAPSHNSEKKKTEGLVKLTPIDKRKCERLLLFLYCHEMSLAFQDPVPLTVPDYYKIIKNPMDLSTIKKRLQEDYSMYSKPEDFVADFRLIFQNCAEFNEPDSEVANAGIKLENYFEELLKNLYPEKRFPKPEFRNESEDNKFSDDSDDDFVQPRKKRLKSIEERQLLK
As to conditions: time 30.0 min.

The species named for assay [3] is Homo sapiens. As to conditions: time 30.0 min. The source holds these as a separate data set.
In assay [4] the target is T2, Bromodomain-containing protein 7 (Homo sapiens) (UniProt Q9NPI1).
T2 sequence (whole entry): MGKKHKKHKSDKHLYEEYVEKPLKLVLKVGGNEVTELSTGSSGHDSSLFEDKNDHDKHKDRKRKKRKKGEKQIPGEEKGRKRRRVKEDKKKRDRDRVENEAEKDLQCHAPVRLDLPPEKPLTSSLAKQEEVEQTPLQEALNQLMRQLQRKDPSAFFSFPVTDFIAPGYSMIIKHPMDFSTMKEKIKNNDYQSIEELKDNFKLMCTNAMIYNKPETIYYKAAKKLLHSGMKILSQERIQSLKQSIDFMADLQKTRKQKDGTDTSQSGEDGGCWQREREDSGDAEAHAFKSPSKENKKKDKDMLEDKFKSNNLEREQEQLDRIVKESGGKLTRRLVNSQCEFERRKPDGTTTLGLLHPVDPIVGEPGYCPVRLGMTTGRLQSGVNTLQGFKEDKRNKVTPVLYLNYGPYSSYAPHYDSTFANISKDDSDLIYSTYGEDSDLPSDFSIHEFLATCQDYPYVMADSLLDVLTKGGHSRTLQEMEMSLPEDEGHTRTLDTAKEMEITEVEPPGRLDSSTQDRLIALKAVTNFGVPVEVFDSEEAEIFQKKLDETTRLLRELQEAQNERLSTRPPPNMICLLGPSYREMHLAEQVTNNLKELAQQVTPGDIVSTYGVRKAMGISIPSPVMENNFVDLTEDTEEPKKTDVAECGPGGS
Kind of assay: Binding affinity to BRD7 (unknown origin) using biotinylated histone peptide H4 as substrate at 1 uM incubated for 2 hrs by AlphaScreen assay relative to control.

Assay [5] concerns the target SWI/SNF-related matrix-associated actin-dependent regulator of chromatin subfamily A member 2 (Homo sapiens) (UniProt P51531). Kind of assay: Binding affinity to SMARCA2 (unknown origin) using biotinylated histone peptide H4 as substrate at 1 uM incubated for 2 hrs by AlphaScreen assay relative to control.
Another assay has as its system Jurkat. Kind of assay: cells. As to conditions: Homo sapiens, 48 h.
The target in assay [6] is Histone acetyltransferase p300 (Homo sapiens) (UniProt Q09472). Kind of assay: Binding affinity to EP300 (unknown origin) using biotinylated histone peptide H4 as substrate at 1 uM incubated for 2 hrs by AlphaScreen assay relative to control. In general terms: Alpha assays give light when donor and acceptor beads are brought close together.
Assay [7] has as its target Chromatin remodeling regulator CECR2 (Homo sapiens) (UniProt Q9BXF3). As to conditions: time 30.0 min.
The target of assay [8] is Bromodomain adjacent to zinc finger domain protein 2B (Homo sapiens) (UniProt Q9UIF8). Kind of assay: Binding affinity to BAZ2B (unknown origin) using biotinylated histone peptide H4 as substrate at 1 uM incubated for 2 hrs by AlphaScreen assay relative to control.
Sequence of Bromodomain adjacent to zinc finger domain protein 2B (Homo sapiens) (Q9UIF8 whole entry, the tested form may be a part): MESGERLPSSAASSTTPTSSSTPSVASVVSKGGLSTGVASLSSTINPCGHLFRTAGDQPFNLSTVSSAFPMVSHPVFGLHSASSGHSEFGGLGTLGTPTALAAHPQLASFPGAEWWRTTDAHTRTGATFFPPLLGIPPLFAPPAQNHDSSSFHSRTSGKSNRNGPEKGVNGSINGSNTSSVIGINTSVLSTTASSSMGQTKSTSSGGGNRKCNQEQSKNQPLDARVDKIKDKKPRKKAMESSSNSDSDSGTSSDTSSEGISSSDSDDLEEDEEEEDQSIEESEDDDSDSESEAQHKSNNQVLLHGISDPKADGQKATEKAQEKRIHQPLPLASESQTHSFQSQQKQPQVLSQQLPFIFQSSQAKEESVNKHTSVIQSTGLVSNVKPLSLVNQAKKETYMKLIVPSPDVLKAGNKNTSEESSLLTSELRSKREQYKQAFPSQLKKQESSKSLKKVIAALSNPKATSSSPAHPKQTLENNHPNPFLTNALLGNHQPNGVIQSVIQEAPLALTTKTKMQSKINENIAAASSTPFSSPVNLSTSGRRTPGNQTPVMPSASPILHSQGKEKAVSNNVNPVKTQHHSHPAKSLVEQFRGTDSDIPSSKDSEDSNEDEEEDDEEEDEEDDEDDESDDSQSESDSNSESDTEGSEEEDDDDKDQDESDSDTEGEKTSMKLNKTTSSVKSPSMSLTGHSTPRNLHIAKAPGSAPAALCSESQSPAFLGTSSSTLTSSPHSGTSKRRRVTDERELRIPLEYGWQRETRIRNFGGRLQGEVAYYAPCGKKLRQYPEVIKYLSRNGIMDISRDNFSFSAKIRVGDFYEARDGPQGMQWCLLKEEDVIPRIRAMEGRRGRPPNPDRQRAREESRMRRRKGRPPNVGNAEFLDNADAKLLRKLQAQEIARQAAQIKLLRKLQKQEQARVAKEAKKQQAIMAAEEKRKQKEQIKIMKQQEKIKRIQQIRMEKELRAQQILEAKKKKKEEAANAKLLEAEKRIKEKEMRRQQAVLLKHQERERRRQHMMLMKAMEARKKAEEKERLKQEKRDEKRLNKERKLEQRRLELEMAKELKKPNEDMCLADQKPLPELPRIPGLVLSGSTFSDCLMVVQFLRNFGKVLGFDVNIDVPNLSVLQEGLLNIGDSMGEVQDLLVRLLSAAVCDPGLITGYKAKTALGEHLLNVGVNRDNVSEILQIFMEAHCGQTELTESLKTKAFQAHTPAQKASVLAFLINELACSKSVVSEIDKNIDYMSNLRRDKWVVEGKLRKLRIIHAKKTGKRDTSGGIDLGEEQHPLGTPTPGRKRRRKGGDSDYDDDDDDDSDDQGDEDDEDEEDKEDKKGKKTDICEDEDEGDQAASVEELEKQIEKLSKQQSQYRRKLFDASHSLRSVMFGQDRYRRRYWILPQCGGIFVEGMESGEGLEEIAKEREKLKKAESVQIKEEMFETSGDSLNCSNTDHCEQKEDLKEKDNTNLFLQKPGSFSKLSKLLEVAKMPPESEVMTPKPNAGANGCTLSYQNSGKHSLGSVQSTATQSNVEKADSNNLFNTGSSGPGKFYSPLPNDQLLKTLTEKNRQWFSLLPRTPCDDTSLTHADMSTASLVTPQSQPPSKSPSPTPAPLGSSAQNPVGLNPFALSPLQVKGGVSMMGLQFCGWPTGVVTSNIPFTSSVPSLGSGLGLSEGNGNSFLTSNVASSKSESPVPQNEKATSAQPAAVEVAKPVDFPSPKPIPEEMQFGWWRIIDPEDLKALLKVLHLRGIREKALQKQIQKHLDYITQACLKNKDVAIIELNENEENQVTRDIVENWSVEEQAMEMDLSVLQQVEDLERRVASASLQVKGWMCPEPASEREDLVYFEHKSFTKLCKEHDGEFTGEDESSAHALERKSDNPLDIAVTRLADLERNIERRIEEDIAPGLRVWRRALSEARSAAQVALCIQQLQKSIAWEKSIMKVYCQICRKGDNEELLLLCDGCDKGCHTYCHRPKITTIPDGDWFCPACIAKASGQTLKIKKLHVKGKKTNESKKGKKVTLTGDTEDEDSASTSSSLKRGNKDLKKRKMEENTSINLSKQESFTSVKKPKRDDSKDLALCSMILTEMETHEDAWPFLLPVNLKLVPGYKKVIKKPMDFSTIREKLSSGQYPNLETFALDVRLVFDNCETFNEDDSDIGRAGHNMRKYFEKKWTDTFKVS
A further assay concerns MV4-11. In words: cells. As to conditions: Homo sapiens, MV4-11, 48 h.
For assay [9], the target named is Histone acetyltransferase KAT2B (Homo sapiens) (UniProt Q92831). As to conditions: time 30.0 min.
Sequence of Histone acetyltransferase KAT2B (Homo sapiens) (Q92831 whole entry, looked up, the tested form may be a part): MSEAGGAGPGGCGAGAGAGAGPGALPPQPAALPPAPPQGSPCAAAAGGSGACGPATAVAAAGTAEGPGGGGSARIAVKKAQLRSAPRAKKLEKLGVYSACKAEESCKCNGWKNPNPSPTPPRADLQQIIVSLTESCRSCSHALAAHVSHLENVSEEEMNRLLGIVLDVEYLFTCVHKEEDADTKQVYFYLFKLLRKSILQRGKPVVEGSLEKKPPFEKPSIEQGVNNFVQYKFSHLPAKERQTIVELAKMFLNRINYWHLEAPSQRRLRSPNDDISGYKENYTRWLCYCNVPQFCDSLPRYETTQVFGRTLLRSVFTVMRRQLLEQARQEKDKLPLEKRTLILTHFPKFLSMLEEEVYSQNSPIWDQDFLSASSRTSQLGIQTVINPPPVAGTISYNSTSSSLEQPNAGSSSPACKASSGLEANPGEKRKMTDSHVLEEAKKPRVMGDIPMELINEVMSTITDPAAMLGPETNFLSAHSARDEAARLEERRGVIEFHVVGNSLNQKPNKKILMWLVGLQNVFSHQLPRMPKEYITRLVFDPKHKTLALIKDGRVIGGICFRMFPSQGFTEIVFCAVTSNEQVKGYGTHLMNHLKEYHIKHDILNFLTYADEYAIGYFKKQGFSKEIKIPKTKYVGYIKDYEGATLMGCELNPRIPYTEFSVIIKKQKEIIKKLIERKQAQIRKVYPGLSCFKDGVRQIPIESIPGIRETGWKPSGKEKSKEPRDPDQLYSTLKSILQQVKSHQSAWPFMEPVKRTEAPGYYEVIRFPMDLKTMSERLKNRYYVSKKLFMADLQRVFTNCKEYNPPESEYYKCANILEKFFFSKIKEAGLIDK
The target in assay [10] is Bromodomain adjacent to zinc finger domain protein 2B (Homo sapiens) (UniProt Q9UIF8). As to conditions: time 30.0 min.

Sequence of SWI/SNF-related matrix-associated actin-dependent regulator of chromatin subfamily A member 2 (Homo sapiens) (P51531 whole entry): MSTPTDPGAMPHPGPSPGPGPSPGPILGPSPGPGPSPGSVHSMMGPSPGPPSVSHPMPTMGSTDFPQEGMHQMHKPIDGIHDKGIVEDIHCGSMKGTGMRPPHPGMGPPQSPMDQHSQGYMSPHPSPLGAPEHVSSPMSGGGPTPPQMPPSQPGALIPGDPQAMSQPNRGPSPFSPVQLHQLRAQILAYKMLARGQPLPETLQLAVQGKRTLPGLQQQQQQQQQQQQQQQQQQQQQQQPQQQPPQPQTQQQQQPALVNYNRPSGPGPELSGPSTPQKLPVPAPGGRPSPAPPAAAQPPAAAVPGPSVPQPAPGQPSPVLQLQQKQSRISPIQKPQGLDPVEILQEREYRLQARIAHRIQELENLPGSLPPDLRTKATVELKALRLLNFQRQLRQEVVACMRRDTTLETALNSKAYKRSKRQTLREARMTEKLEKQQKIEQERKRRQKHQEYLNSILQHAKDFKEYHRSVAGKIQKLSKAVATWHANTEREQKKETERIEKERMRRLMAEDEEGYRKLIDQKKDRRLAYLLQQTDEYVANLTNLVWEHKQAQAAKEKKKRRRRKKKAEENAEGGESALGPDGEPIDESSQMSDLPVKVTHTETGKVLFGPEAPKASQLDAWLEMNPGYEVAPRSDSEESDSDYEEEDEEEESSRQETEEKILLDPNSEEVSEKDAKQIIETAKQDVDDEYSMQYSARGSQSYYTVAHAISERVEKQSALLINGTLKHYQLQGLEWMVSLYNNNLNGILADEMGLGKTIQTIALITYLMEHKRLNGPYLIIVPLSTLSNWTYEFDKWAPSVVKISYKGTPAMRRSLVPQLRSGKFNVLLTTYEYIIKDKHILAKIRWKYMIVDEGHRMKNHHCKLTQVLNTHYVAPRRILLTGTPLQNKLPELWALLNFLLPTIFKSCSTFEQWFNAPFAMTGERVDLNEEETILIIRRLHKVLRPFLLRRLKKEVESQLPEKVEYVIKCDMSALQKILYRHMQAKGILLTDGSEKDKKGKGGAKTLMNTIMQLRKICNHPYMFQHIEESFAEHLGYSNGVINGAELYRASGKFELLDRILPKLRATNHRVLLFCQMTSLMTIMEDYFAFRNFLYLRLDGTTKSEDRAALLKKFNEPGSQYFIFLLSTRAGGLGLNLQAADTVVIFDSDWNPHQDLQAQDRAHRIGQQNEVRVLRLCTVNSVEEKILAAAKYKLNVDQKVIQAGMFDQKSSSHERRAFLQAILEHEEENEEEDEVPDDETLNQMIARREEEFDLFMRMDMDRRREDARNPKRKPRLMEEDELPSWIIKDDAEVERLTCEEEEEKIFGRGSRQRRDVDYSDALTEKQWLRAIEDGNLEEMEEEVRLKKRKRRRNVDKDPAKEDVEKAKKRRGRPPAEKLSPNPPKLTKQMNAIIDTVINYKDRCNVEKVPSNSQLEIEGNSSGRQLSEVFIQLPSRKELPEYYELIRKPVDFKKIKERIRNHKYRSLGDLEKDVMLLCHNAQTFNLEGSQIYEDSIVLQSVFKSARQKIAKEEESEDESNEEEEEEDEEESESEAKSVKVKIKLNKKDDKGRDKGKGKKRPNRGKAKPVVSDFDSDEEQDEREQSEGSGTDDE
Description for Jurkat: Antiproliferative activity against human Jurkat cells assessed as inhibition of cell growth incubated for 48 hrs by MTT assay
Description for MV4-11: Antiproliferative activity against human MV4-11 cells assessed as inhibition of cell growth incubated for 48 hrs by MTT assay

As to `COc1cc2c(cc1-c1c(C)noc1C)ncc1nc(C)n([C@H](C)c3ccccc3)c12`, the thermal shift (ΔTm) (in the assay listed under Homo sapiens [1]; in [2]; in the assay filed under Homo sapiens [3]; in assay [7]; in assay [9]; in [10]) was 0 °C throughout. In addition, the Activity in assay [4] is below 30%; in assay [5], below 30%; in assay [6] it was above 80%; in [8] it was below 30%. The IC50 with Jurkat was determined as 2080 nM; in the assay with MV4-11 it was 190 nM.

As to `COc1cc2c(cc1-c1c(C)n[nH]c1C)ncc1nc(C)n([C@H](C)c3ccccc3)c12`, the shift in melting temperature (ΔTm) (in the assay listed under Homo sapiens [1]; in [2]; in the assay listed under Homo sapiens [3]; in assay [7]; in assay [9]; in assay [10]) was 0 °C throughout. Further, the Activity in [4], in assay [5], in assay [6] and in assay [8] was below 30% throughout. In addition, the IC50 was found to be 730 nM in the assay on Jurkat and 800 nM with MV4-11.

For orientation: ΔTm means the shift of the melting midpoint relative to a reference. One may read the IC50 as the concentration needed to halve the response being measured. High values mean a need for much substance, low ones inhibition by little substance.
